Test results reported in patent US8030494B2, “Optical recording material” (Adeka Corporation, priority 2006, dated 2011).

Assay: Evaluation of light resistance (absorbance retention of spin-coated film after irradiation)
Assay type: physicochemical
Conditions: film spin-coated from 1% by mass 2,2,3,3-tetrafluoropropanol solution on polycarbonate plate; 55000 lux light for 100 hours; at λmax before irradiation
Description: The compounds obtained in Preparation Examples 1 to 8 and comparative compound No. 2 were evaluated for light resistance as follows. Each of the compounds was dissolved in 2,2,3,3-tetrafluoropropanol to prepare a 1% by mass solution. The solution was applied to a 20 mm by 20 mm polycarbonate plate by spin coating at 2000 rpm for 60 seconds to prepare a specimen. The specimen was irradiated with 55000 lux light for 100 hours. The UV absorption spectra measured before and after the irradiation were compared to calculate an absorbance retention at the λmax of the UV absorption spectrum before the irradiation.

Structure (SMILES): C[N+]1=C(/C=C/c2ccccc2)C(C)(Cc2ccccc2)c2c1ccc1ccccc21 (stereo not shown) [comparative compound No. 2]
- Absorbance Retention (%): 0%
